Assay results reported in the NIST ThermoML archive (doi:10.1021/je900665a).
Numbers after ± are expanded uncertainties.

Settings: Capillary rise

Compound `CC(C)OC(C)C` [diisopropyl ether] has a surface tension liquid-gas (248.07 K) of 22.7 ± 0.46 mN/m, a surface tension liquid-gas (253.23 K) of 22.06 ± 0.46 mN/m and a surface tension liquid-gas (258.1 K) of 21.55 ± 0.46 mN/m. It also gave a surface tension liquid-gas (263.18 K) of 21.02 ± 0.46 mN/m, a surface tension liquid-gas (268.33 K) of 20.52 ± 0.45 mN/m and a surface tension liquid-gas (273.46 K) of 19.93 ± 0.45 mN/m. It also gave a surface tension liquid-gas (278.5 K) of 19.26 ± 0.45 mN/m, a surface tension liquid-gas (283.18 K) of 18.81 ± 0.44 mN/m and a surface tension liquid-gas (288.18 K) of 18.3 ± 0.44 mN/m. For the same compound, the surface tension liquid-gas (293.16 K) was 17.82 ± 0.44 mN/m, the surface tension liquid-gas (298.1 K) was 17.26 ± 0.44 mN/m and the surface tension liquid-gas (303.17 K) was 16.76 ± 0.44 mN/m. The surface tension liquid-gas (308.08 K) was 16.18 ± 0.43 mN/m, the surface tension liquid-gas (313.27 K) was 15.66 ± 0.43 mN/m and the surface tension liquid-gas (318.17 K) was 15.09 ± 0.43 mN/m. The surface tension liquid-gas (323.19 K) was 14.58 ± 0.43 mN/m, the surface tension liquid-gas (328.12 K) was 14.1 ± 0.43 mN/m and the surface tension liquid-gas (333.12 K) was 13.68 ± 0.43 mN/m. It also gave a surface tension liquid-gas (338.11 K) of 13.15 ± 0.42 mN/m, a surface tension liquid-gas (343.1 K) of 12.57 ± 0.42 mN/m and a surface tension liquid-gas (348.1 K) of 12.11 ± 0.42 mN/m. For the same compound, the surface tension liquid-gas (353.1 K) was 11.57 ± 0.42 mN/m, the surface tension liquid-gas (358.15 K) was 11.01 ± 0.42 mN/m and the surface tension liquid-gas (363.17 K) was 10.56 ± 0.42 mN/m. For the same compound, the surface tension liquid-gas (368.17 K) was 10.04 ± 0.41 mN/m and the surface tension liquid-gas (373.17 K) was 9.698 ± 0.41 mN/m.

`CCOCC` [diethyl ether] gave a surface tension liquid-gas (258.17 K) of 21.49 ± 0.41 mN/m, a surface tension liquid-gas (263.17 K) of 20.76 ± 0.41 mN/m and a surface tension liquid-gas (268.18 K) of 20.13 ± 0.41 mN/m. For the same compound, the surface tension liquid-gas (273.18 K) was 19.62 ± 0.41 mN/m, the surface tension liquid-gas (278.18 K) was 18.97 ± 0.41 mN/m and the surface tension liquid-gas (283.18 K) was 18.46 ± 0.41 mN/m. It also gave a surface tension liquid-gas (288.18 K) of 17.82 ± 0.41 mN/m, a surface tension liquid-gas (293.16 K) of 17.15 ± 0.41 mN/m and a surface tension liquid-gas (298.1 K) of 16.58 ± 0.41 mN/m. The surface tension liquid-gas (303.17 K) was 16 ± 0.4 mN/m, the surface tension liquid-gas (308.11 K) was 15.44 ± 0.4 mN/m and the surface tension liquid-gas (313.19 K) was 14.87 ± 0.4 mN/m. It also gave a surface tension liquid-gas (318.16 K) of 14.14 ± 0.4 mN/m, a surface tension liquid-gas (323.16 K) of 13.61 ± 0.4 mN/m and a surface tension liquid-gas (328.12 K) of 12.96 ± 0.4 mN/m. The surface tension liquid-gas (333.18 K) was 12.46 ± 0.4 mN/m, the surface tension liquid-gas (338.17 K) was 11.92 ± 0.4 mN/m and the surface tension liquid-gas (343.17 K) was 11.28 ± 0.4 mN/m. For the same compound, the surface tension liquid-gas (348.17 K) was 10.75 ± 0.4 mN/m, the surface tension liquid-gas (353.19 K) was 10.19 ± 0.4 mN/m and the surface tension liquid-gas (358.18 K) was 9.575 ± 0.4 mN/m. The surface tension liquid-gas (363.16 K) was 9.014 ± 0.4 mN/m, the surface tension liquid-gas (368.18 K) was 8.459 ± 0.4 mN/m and the surface tension liquid-gas (373.17 K) was 7.914 ± 0.4 mN/m.

In the case of `CCCCCCC` [heptane], the surface tension liquid-gas (298.13 K) is reported as 20 ± 0.42 mN/m, the surface tension liquid-gas (303.18 K) is reported as 19.58 ± 0.42 mN/m and the surface tension liquid-gas (308.12 K) is reported as 18.97 ± 0.41 mN/m. It also gave a surface tension liquid-gas (313.18 K) of 18.41 ± 0.41 mN/m, a surface tension liquid-gas (318.17 K) of 17.97 ± 0.41 mN/m and a surface tension liquid-gas (323.2 K) of 17.48 ± 0.41 mN/m. For the same compound, the surface tension liquid-gas (328.15 K) was 16.92 ± 0.41 mN/m.
